Test results from US20030004172A1, “Fused pyrimidinone matrix metalloproteinase inhibitors” (priority 2001, published 2003).

The compounds below were run against MMP-13CD (catalytic domain of collagenase-3) (Homo sapiens, UniProt P45452) (assay: Thiopeptolide substrate hydrolysis inhibition assay, MMP-13CD). Details: Table I; thiopeptolide substrate, HEPES pH 7.0, 22° C.; read-out: MMP-13CD IC50.
Type: biochemical
From the text: Thiopeptolide substrates show virtually no decomposition or hydrolysis at or below neutral pH in the absence of a matrix metalloproteinase enzyme.

Going from CCC1(COC(=O)c2cc3c(=O)n(Cc4ccccc4)c(=O)n(C)c3s2)COC1 [Example 173, 3-Benzyl-1-methyl-2,4-dioxo-1,2,3,4-tetrahydro-thieno[2,3-d]pyrimidine-6-carboxylic acid 3-ethyl-oxetan-3-ylmethyl ester] to CCCCCOC(=O)c1cc2c(=O)n(Cc3ccccc3)c(=O)n(C)c2s1 [Example 180, 3-Benzyl-1-methyl-2,4-dioxo-1,2,3,4-tetrahydro-thieno[2,3-d]pyrimidine-6-carboxylic acid pentyl ester], the IC50 falls from > 100 µM to 30 µM.

Cn1c(=O)n(Cc2ccccc2)c(=O)c2cc(C(=O)OCCN3CCOCC3)sc21 [Example 174, 3-Benzyl-1-methyl-2,4-dioxo-1,2,3,4-tetrahydro-thieno[2,3-d]pyrimidine-6-carboxylic acid 2-morpholin-4-yl-ethyl ester] and Cn1c(=O)n(Cc2ccccc2)c(=O)c2cc(C(=O)OCCN3CCCC3)sc21 [Example 175, 3-Benzyl-1-methyl-2,4-dioxo-1,2,3,4-tetrahydro-thieno[2,3-d]pyrimidine-6-carboxylic acid 2-pyrrolidin-1-yl-ethyl ester] cannot be ordered by IC50: > 100 µM for the first, > 100 µM for the second.

CCOCCOCCOC(=O)c1cc2c(=O)n(Cc3ccccc3)c(=O)n(C)c2s1 [Example 177, 3-Benzyl-1-methyl-2,4-dioxo-1,2,3,4-tetrahydro-thieno[2,3-d]pyrimidine-6-carboxylic acid 2-(2-ethoxy-ethoxy)-ethyl ester] and CC(C)CCOC(=O)c1cc2c(=O)n(Cc3ccccc3)c(=O)n(C)c2s1 [Example 184, 3-Benzyl-1-methyl-2,4-dioxo-1,2,3,4-tetrahydro-thieno[2,2-d]pyrimidine-6-caboxylic acid 3-methyl-butyl ester] cannot be ordered by IC50: > 100 µM for the first, > 100 µM for the second.

Cn1c(=O)n(Cc2ccccc2)c(=O)c2cc(C(=O)OCC3CCCCO3)sc21 (stereo not drawn) [Example 178, 3-Benzyl-1-methyl-2,4-dioxo-1,2,3,4-tetrahydro-thieno[2,3-d]pyrimidine-6-carboxylic acid tetrahydro-pyran-2-ylmethyl ester] and Cn1c(=O)n(Cc2ccccc2)c(=O)c2cc(C(=O)OCC3CCCCCC3)sc21 [Example 197, 3-Benzyl-1-methyl-2,4-dioxo-1,2,3,4-tetrahydro-thieno[2,3-d]pyrimidine-6-carboxylic acid cycloheptylmethyl ester] cannot be ordered by IC50: > 100 µM for the first, > 100 µM for the second.

Going from Cn1c(=O)n(Cc2ccccc2)c(=O)c2cc(C(=O)OCc3ccc([N+](=O)[O-])cc3)sc21 [Example 179, 3-Benzyl-1-methyl-2,4-dioxo-1,2,3,4-tetrahydro-thieno[2,3-d]pyrimidine-6-carboxylic acid 4-nitro-benzyl ester] to Cn1c(=O)n(Cc2ccccc2)c(=O)c2cc(C(=O)OCc3ccc(Cl)cc3)sc21 [Example 185, 3-Benzyl-1-methyl-2,4-dioxo-1,2,3,4-tetrahydro-thieno[2,3-d]pyrimidine-6-carboxylic acid 4-chloro-benzyl ester], the IC50 falls from 0.25 µM to 0.014 µM (18-fold).

First: Cn1c(=O)n(Cc2ccccc2)c(=O)c2cc(C(=O)OCCCc3ccccc3)sc21 [Example 181, 3-Benzyl-1-methyl-2,4-dioxo-1,2,3,4-tetrahydro-thieno[2,3-d]pyrimidine-6-carboxylic acid 3-phenyl-propyl ester]
Second: Cn1c(=O)n(Cc2ccccc2)c(=O)c2cc(C(=O)OCCCc3ccccn3)sc21 [Example 194, 3-Benzyl-1-methyl-2,4-dioxo-1,2,3,4-tetrahydro-thieno[2,3-d]pyrimidine-6-carboxylic acid 3-pyridin-2-yl-propyl ester]
The IC50 of the first is higher: > 100 µM for the first, 88 µM for the second. The second is the more potent here.

Compared with Cn1c(=O)n(Cc2ccccc2)c(=O)c2cc(C(=O)OCc3cccc(Oc4ccccc4)c3)sc21 [Example 182, 3-Benzyl-1-methyl-2,4-dioxo-1,2,3,4-tetrahydro-thieno[2,3-d]pyrimidine-6-carboxylic acid 3-phenoxy-benzyl ester], COc1cccc(COC(=O)c2cc3c(=O)n(Cc4ccccc4)c(=O)n(C)c3s2)c1 [Example 192, 3-Benzyl-1-methyl-2,4-dioxo-1,2,3,4-tetrahydro-thieno[2,3-d]pyrimidine-6-carboxylic acid 3-methoxy-benzyl ester] is 2500-fold lower in IC50: 8.6 µM for the first, 0.0034 µM for the second. The second is the more potent here.

First: COc1cc(COC(=O)c2cc3c(=O)n(Cc4ccccc4)c(=O)n(C)c3s2)cc(OC)c1 [Example 183, 3-Benzyl-1-methyl-2,4-dioxo-1,2,3,4-tetrahydro-thieno[2,3-d]pyrimidine-6-carboxylic acid 3,5-dimethoxy-benzyl ester]
Second: COc1cccc(COC(=O)c2cc3c(=O)n(Cc4ccccc4)c(=O)n(C)c3s2)c1 [Example 193, 3-Benzyl-1-methyl-2,4-dioxo-1,2,3,4-tetrahydro-thieno[2,3-d]pyrimidine-6-carboxylic acid 3-methoxy-benzyl ester]
The IC50 of the first is 8800-fold higher: 30 µM for the first, 0.0034 µM for the second. The second is the more potent here.

Compared with CCN1CCCC(OC(=O)c2cc3c(=O)n(Cc4ccccc4)c(=O)n(C)c3s2)C1 (stereo not drawn) [Example 186, 3-Benzyl-1-methyl-2,4-dioxo-1.2.3.4-tetrahydro-thieno[2,3-d]pyrimidine-6-carboxylic acid 1-ethyl-piperidin-3-yl ester], Cn1c(=O)n(Cc2ccccc2)c(=O)c2cc(C(=O)OC3CCOC3)sc21 (stereo not drawn) [Example 191, 3-Benzyl-1-methyl-2,4-dioxo-1,2,3,4-tetrahydro-thieno[2,3-d]pyrimidine-6-carboxylic acid tetrahydro-furan-3-yl ester] is 2-fold lower in IC50: 4.5 µM for the first, 2.3 µM for the second.

Compared with Cn1c(=O)n(Cc2ccccc2)c(=O)c2cc(C(=O)OCc3ccc(OCc4ccccc4)cc3)sc21 [Example 187, 3-Benzyl-1-methyl-2,4-dioxo-1,2,3,4-tetrahydro-thieno[2,3-d]pyrimidine-6-carboxylic acid 4-benzyloxy-benzyl ester], COc1ccc(CCCOC(=O)c2cc3c(=O)n(Cc4ccccc4)c(=O)n(C)c3s2)cc1 [Example 189, 3-Benzyl-1-methyl-2,4-dioxo-1,2,3,4-tetrahydro-thieno[2,3-d]pyrimidine-6-carboxylic acid 3-(4-methoxy-phenyl)-propyl ester] is lower in IC50: > 100 µM for the first, 4.9 µM for the second.

Compared with CC(C)COC(=O)c1cc2c(=O)n(Cc3ccccc3)c(=O)n(C)c2s1 [Example 188, 3-Benzyl-1-methyl-2,4-dioxo-1,2,3,4-tetrahydro-thieno[2,3-d]pyrimidine-6-carboxylic acid isobutyl ester], Cn1c(=O)n(Cc2ccccc2)c(=O)c2cc(C(=O)OCCC3CCCCN3)sc21 (stereo not drawn) [Example 195, 3-Benzyl-1-methyl-2,4-dioxo-1,2,3,4-tetrahydro-thieno[2,3-d]pyrimidine-6-carboxylic acid 2-piperidin-2-yl-ethyl ester] is higher in IC50: 19 µM for the first, > 100 µM for the second.

Compared with Cn1c(=O)n(Cc2ccccc2)c(=O)c2cc(C(=O)OCc3c(F)cccc3Cl)sc21 [Example 190, 3-Benzyl-1-methyl-2,4-dioxo-1,2,3,4-tetrahydro-thieno[2,3-d]pyrimidine-6-carboxylic acid 2-chloro-6-fluoro-benzyl ester], COc1ccc(Br)cc1COC(=O)c1cc2c(=O)n(Cc3ccccc3)c(=O)n(C)c2s1 [Example 196, 3-Benzyl-1-methyl-2,4-dioxo-1,2,3,4-tetrahydro-thieno[2,3-d]pyrimidine-6-carboxylic acid 5-bromo-2-methoxy-benzyl ester] is lower in IC50: > 100 µM for the first, 30 µM for the second.
